The subject of assay [1] is longitudinal muscle strips from the rat gastric forestomach. Briefly: Rat isolated forestomach assay (EFS-evoked contractions). As to the method: Rat Isolated Forestomach Assay
Longitudinal muscle strips with mucosa partially removed were,obtained from the rat gastric forestomach, and suspended under an initial “load” of 1 g for isometric recording between two platinum ring electrodes, in 5 or 10 ml tissue baths containing Krebs solution bubbled with 5% CO2/95% O2 and maintained at 37° C. Following an equilibration period of 30 min, during which time the tissues were flushed every 15 minutes with fresh Krebs solution, tissues were stimulated with electrical field stimulation (EFS) [50V for 10 ml bath, 25V for 5 ml bath, at 2.5 Hz 0.5 ms pulse duration, for 10 s, every 1 min]. The tissues were left stimulating for at least 30 min. After obtaining consistent responses to EFS, the test compound was added to the bathing solution, each dose left in contact for at least 10 minutes. The % potentiation of contractions to EFS were measured as the area of 4 maximum EFS contractions after addition of compound relative to the area of 4 maximum EFS contractions before addition of the lowest concentration of compound. Data are expressed as means standard error of the mean; n-values are per animal used.

In assay [2] the target is T1, human 5-HT4a receptor (Homo sapiens, UniProt Q13639). Briefly: Yeast functional 5-HT4a agonist assay. Conditions: n=9. Details: expressed in transfected cells; host or cells: Saccharomyces cerevisiae strain MMY23 (expression cassette integrated at the ura3 locus). It counts as cell-based. From the text:
Yeast Functional 5-HT4a Agonist Assay
Yeast (Saccharomyces cerevisiae) cells expressing the human 5-HT4a receptor were generated by integration of an expression cassette into the ura3 chromosomal locus of yeast strain MMY23. This cassette consisted of DNA sequence encoding the human 5-HT4a receptor flanked by the yeast glyceraldehyde-3-phosphate dehydrogenase (GPD) promoter to the 5′ end of 5-HT4a and a yeast transcriptional terminator sequence to the 3′ end of 5-HT4a. MMY23 expresses a yeast/mammalian chimeric G-protein alpha subunit in which the C-terminal 5 amino acids of Gpa1 are replaced with the C-terminal 5 amino acids of human Gil (as described in Brown et al. (2000), Yeast 16:11-22). Cells were grown at 30° C. in liquid Synthetic Complete (SC) yeast media (Guthrie and Fink (1991), Methods in Enzymology, Vol.194) lacking uracil, tryptophan, adenine and leucine to late logarithmic phase (approximately 6 OD600/ml).
Agonists were prepared as 10 mM stocks in DMSO. EC50 values (the concentration required to produce 50% maximal response) were estimated using serial dilutions of between 3- and 5-fold (BiomekFX, Beckman) into DMSO. pEC50 corresponds to negative log10 of molar EC50. […] After incubation at 30° C. for 24 hours, fluorescence resulting from degradation of FDGlu to fluorescein due to exoglucanase, an endogenous yeast enzyme produced during agonist-stimulated cell growth, was determined (excitation wavelength: 485 nm; emission wavelength: 535 nm) using a Spectrofluor (Tecan) or similar microtitre plate reader. Fluorescence was plotted against compound concentration and iteratively curve fitted using a four parameter fit to generate a concentration effect value. […]
Where Max[compound X] and Min[compound X] are the fitted maximum and minimum respectively from the concentration effect curve for compound X, and Max[5-HT] and Min[5-HT] are the fitted maximum and minimum respectively from the concentration effect curve for 5-hydroxytryptamine. Equieffective molar ratio (EMR) values were calculated from the equation: EMR=EC50 [compound X]/EC50 [5-HT] […]

The target in assay [3] is T1, human 5-HT4a receptor. Briefly: Mammalian functional 5-HT4a agonist assay (HEK-293-MSR-II cells, FLIPR). Type of assay: cell-based. Details: expressed in transfected cells; host or cells: HEK-293-MSR-II cells transduced with BacMam viruses. How it is done: Mammalian Functional 5-HT4a Agonist Assay
Human embryonic kidney cells stably expressing the human macrophage scavenger receptor type II (HEK-293-MSR-II cells) were established in-house (Lysko PG et al., J Pharmacol Exp Ther. 289(3):1277-85). These cells were grown in humidified conditions in Minimum Essential Medium containing 10% fetal calf serum (FCS), 1× non-essential amino acids, 2 mM L-glutamine and 0.4 mg/ml geneticin at 37° C./5% CO2.
BacMam plasmid constructs for the production of viruses for expression in mammalian cells were generated as described (Condreay J P et al., Proc. Natl. Acad. Sci. 96:127-132, Ames R et al., Receptors Channels 10(3-4):117-24). […]
The next day 50 μl Fluo4am dye (at 6 μM in Tyrodes buffer containing 1.5 mM calcium chloride and 2.5mM probenicid) was added to each well and incubated at 37° C./5% CO2 for one hour. […] A Fluorimetric Imaging Plate Reader (FLIPR) was used to add the compounds to the cells (50 μl per well) and to determine peak fluorescence emitted per well over the whole assay period.

Another assay addresses 5HT2b (Homo sapiens, UniProt P41595). Briefly: 5HT2b antagonist activity (no method given).

T1 sequence (Q13639 1-387 isoform Q13639-2): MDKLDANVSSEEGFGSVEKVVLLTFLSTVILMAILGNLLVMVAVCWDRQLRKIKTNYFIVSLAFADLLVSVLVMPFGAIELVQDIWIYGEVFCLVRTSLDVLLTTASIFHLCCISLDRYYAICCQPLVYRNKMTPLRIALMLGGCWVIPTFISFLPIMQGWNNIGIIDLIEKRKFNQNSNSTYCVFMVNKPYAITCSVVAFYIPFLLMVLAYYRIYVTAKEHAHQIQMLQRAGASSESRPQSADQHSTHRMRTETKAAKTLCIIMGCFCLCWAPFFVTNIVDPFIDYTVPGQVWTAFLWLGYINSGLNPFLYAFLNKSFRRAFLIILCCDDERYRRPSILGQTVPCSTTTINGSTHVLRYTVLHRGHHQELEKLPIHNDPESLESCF
Sequence of 5HT2b (P41595 whole entry, species assumed): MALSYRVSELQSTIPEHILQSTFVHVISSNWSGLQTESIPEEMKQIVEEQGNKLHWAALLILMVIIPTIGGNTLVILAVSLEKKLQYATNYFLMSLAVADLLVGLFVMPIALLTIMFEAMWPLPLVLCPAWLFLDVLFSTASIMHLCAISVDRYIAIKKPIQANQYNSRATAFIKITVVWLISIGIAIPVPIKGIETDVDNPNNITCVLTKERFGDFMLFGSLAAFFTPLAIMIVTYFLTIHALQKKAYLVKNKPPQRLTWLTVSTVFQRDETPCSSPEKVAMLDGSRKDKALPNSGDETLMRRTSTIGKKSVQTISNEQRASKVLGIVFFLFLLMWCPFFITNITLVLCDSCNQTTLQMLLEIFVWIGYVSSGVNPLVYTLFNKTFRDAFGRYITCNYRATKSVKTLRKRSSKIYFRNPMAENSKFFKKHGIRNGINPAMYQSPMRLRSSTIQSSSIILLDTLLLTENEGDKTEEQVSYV

`Cl.Nc1c(Br)cc(C(=O)NCC2CCN(CC3CCOCC3)CC2)c2c1CCCO2` [Example E1, 5-Amino-6-bromo-N-{[1-(tetrahydro-2H-pyran-4-ylmethyl)-4-piperidinyl]methyl}-3,4-dihydro-2H-chromene-8-carboxamide hydrochloride]: the “% potentiation of contractions to EFS, Mean” value in assay [1] (1 nM E1, n=5) is reported as 12.89%; in assay [1] (10 nM E1, n=5) it was 50.62%; in assay [1] (100 nM E1, n=5), 89.57%; in assay [1] (1 μM E1, n=5), 115.46%; in assay [1] (10 μM E1, n=5), 181.32%. Besides, the “EMR (equieffective molar ratio, EC50 compound/EC50 5-HT)” value on human 5-HT4a receptor [2] (relative to 5-HT) turned out to be 0.281. Further, on human 5-HT4a receptor [2] (relative to 5-hydroxytryptamine, read-out: Mean efficacy (Emax relative to 5-HT)), the Emax came to 94%. Further, the EC50 at human 5-HT4a receptor [2] (yeast cells expressing human 5-HT4a, read-out: Mean pEC50 (converted)) was 0.501 nM; on human 5-HT4a receptor [3] (HEK-293-MSR-II cells, BacMam 5-HT4a + Gα16, n=12, read-out: mean pEC50 (converted)) it was 2.29 nM. Also, the mean efficacy at human 5-HT4a receptor [3] (relative to maximal effect of 5-HT, n=12) came out at 70%.

For the molecule `Nc1c(Br)cc(C(=O)NCC2CCN(CC3CCOCC3)CC2)c2c1CCCO2` [(A), 5-amino-6-bromo-N-{[1-(tetrahydro-2H-pyran-4-ylmethyl)-4-piperidinyl]methyl}-3,4-dihydro-2H-chromene-8-carboxamide], in assay [1] (in vitro, rat forestomach assay), the gastroprokinetic activity result is on record as “exhibits gastroprokinetic activity”. In addition, the 5HT2b antagonist activity entry at 5HT2b is given as “exhibit 5HT2b antagonist activity”.

As usually defined, the Emax is the greatest response seen or fitted, relative to the assay's reference.

The record behind these values is patent US20070232657A1, “NOVEL COMPOUNDS” (GLAXO GROUP LIMITED, priority 2006, published 2007).
